The assay deals with Lymphosarcoma Mecca ip in C3AKF1 mice, survival T/C%. Kind of assay: NCI In Vivo Anticancer Drug Screen. Data for tumor model Lymphosarcoma Mecca (intraperitoneal) in C3AKF1 (CHKRF1) mice. The conditions noted are these: endpoint: survival time, mean or median, schedule: Q01DX010 (ip), higher = longer survival. On the procedure:
The antitumor activity of compounds was measured in mice bearing transplantable tumors. Survival or tumor size were measured and the results are expressed as the measurement made in the treated group (T) divided by the measurement made in the vehicle treated control group (C). The tumor model used in this assay is Lymphosarcoma Mecca (intraperitoneal) in C3AKF1 (CHKRF1) mice

The mark [1] stands for this setting: dose: 7.5 mg/kg/injection, vehicle: saline.
[2] abbreviates: dose: 15.0 mg/kg/injection, vehicle: saline.
Setting [3] is: dose: 30.0 mg/kg/injection, vehicle: saline.
The mark [4] stands for this setting: dose: 60.0 mg/kg/injection, vehicle: saline.
The mark [5] stands for this setting: dose: 10.0 mg/kg/injection, vehicle: saline.
[6] abbreviates: dose: 20.0 mg/kg/injection, vehicle: saline.
Where [7] appears, read: dose: 40.0 mg/kg/injection, vehicle: saline.
The mark [8] stands for this setting: dose: 80.0 mg/kg/injection, vehicle: saline.
The mark [9] stands for this setting: dose: 12.5 mg/kg/injection, vehicle: saline.
Setting [10] is: dose: 25.0 mg/kg/injection, vehicle: saline.
Where [11] appears, read: dose: 50.0 mg/kg/injection, vehicle: saline.
Setting [12] is: dose: 100.0 mg/kg/injection, vehicle: saline.

“And” between values parts separate entries of the source, which are not always exact repeats. Equal values may be shown once. Toxic doses and inconclusive results are not listed.

For `CN(C)[C@@H]1C(=O)C(C(N)=O)=C(O)[C@@]2(O)C(=O)C3=C(O)c4c(O)cccc4C[C@H]3C[C@@H]12`, the T/C is 100 % of control (dose: 3.75 mg/kg/injection, vehicle: saline); 100 % of control under setting [1]; 100 % of control under setting [2]; 90 % of control and 94 % of control under setting [3].
In the case of `CO[C@@H]1[C@@H](OC2OC(C)C(OC3CC(C)(O)C(OC(=O)CC(C)C)C(C)O3)C(N(C)C)C2O)[C@@H](CC=O)C[C@@H](C)C(=O)/C=C/C2O[C@H]2C[C@@H](C)OC(=O)C[C@H]1OC(C)=O` (some centres undefined), the T/C reads like this: (dose: 4.7 mg/kg/injection, vehicle: saline) 90 % of control; (dose: 9.4 mg/kg/injection, vehicle: saline) 100 % of control; (dose: 18.8 mg/kg/injection, vehicle: saline) 90 % of control; (dose: 37.5 mg/kg/injection, vehicle: saline) 90 % of control and 95 % of control; (dose: 75.0 mg/kg/injection, vehicle: saline) 86 % of control.
With `N#CCSc1ncnc2nc[nH]c12`, the T/C is, setting by setting: under setting [2], 95 % of control and 119 % of control; under setting [3], 90 % of control and 95 % of control; under setting [4], 90 % of control and 95 % of control; (dose: 120.0 mg/kg/injection, vehicle: saline) 95 % of control.
Consider `Cn1c(N)nc2nc[nH]c2c1=S`, for which the T/C was 100 % of control and 105 % of control under setting [5]; 100 % of control and 105 % of control under setting [6]; 110 % of control under setting [7]; 100 % of control under setting [8].
With `COc1cc(-c2ccc(Nc3ccccc3C(=O)O)c(OC)c2)ccc1Nc1ccccc1C(=O)O`, the T/C is, setting by setting: under setting [9], 111 % of control; under setting [10], 120 % of control and 122 % of control; (dose: 200.0 mg/kg/injection, vehicle: saline) 105 % of control.
On to `O=[n+]1c2c(n([O-])c3ccccc31)-c1cccc3cccc-2c13`, for which the T/C is, setting by setting: (dose: 3.13 mg/kg/injection, vehicle: saline) 100 % of control; under setting [9], 88 % of control; under setting [10], 90 % of control.
`Nc1ncnc2[nH]ncc12`: the T/C is 105 % of control (dose: 1.5 mg/kg/injection, vehicle: saline); 111 % of control and 115 % of control (dose: 3.0 mg/kg/injection, vehicle: saline); 95 % of control (dose: 6.0 mg/kg/injection, vehicle: saline); 95 % of control (dose: 12.0 mg/kg/injection, vehicle: saline).
Regarding `O=NN(CCCl)C(=O)NCCCl`, the T/C is 275 % of control and 303 % of control (dose: 6.25 mg/kg/injection, vehicle: saline); 151 % of control and 155 % of control under setting [9]; 92 % of control and 115 % of control under setting [10].
With `CCN(CC)CCCC(C)Nc1c2ccc(Cl)cc2nc2ccc(OC)cc12` (centres undefined), the T/C is, setting by setting: under setting [9], 100 % of control; under setting [10], 100 % of control and 111 % of control; under setting [11], 90 % of control and 105 % of control; under setting [12], 95 % of control and 111 % of control.
As for `COc1cc(-c2ccc(Nc3ccccc3C(=O)O)c(OC)c2)ccc1N`, the T/C is 105 % of control and 110 % of control under setting [5]; 111 % of control and 115 % of control under setting [6]; 122 % of control under setting [7]; 111 % of control under setting [8].
For `CCN(CC)CCNc1ccc(C)c2sc3ccccc3c(=O)c12`, the T/C was 116 % of control and 122 % of control under setting [10]; 105 % of control under setting [11]; 111 % of control under setting [12].
As to `O=c1[nH]c(=O)n(C2CC(O)C(CO)O2)cc1F` (centres undefined), the T/C (dose: 5.0 mg/kg/injection, vehicle: saline) was 100 % of control; the T/C under setting [5] is 109 % of control and 115 % of control; the T/C under setting [6] is 113 % of control and 120 % of control; the T/C under setting [8] is 159 % of control.
Regarding `Clc1ncnc2nc[nH]c12`, the T/C is, setting by setting: under setting [1], 90 % of control; under setting [2], 95 % of control and 100 % of control; under setting [3], 86 % of control and 95 % of control; under setting [4], 86 % of control.
In the case of `Nc1nc(N)c2nc(CNc3ccc(C(=O)NC(CCC(=O)O)C(=O)O)cc3)cnc2n1` (centres undefined), the T/C was 162 % of control and 215 % of control (dose: 0.1 mg/kg/injection, vehicle: other); 155 % of control and 190 % of control (dose: 0.2 mg/kg/injection, vehicle: other).
As for `c1ccc(CNc2ncnc3[nH]ncc23)cc1`, the T/C was 151 % of control (dose: 8.0 mg/kg/injection, vehicle: saline); 100 % of control and 118 % of control (dose: 16.0 mg/kg/injection, vehicle: saline); 90 % of control (dose: 32.0 mg/kg/injection, vehicle: saline).

(Values after PubChem BioAssay AID304 (DTP/NCI, 2004).)
